Source: patent US20060205679A1, “Topical and oral formulations of cardiac glycosides for treating skin diseases” (Azaya Therapeutics, Inc., priority 2004, published 2006)

Tests used:
[1] = test system: cultered cancer cell lines; settings: cited from earlier work
[2] = test system: human malignant cell lines; settings: rapidly proliferating normal cells not affected; cited from earlier work
[3] = test system: primary cultures of tumor cells from patients and a human cell line panel; settings: cited from earlier work
[4] = test system: androgen independent human prostate cancer cell lines; settings: in-vitro; cited from earlier work
[5] = test system: c-Jun NH2-terminal kinase; settings: cited from earlier work
[6] = test system: FGF-2 release from DU145 cells; settings: oleandrin 0.1 ng/mL; cited from earlier work
[7] = cited from earlier work
AP-1 = settings: cited from earlier work
NF-κB = settings: cited from earlier work
murine cancer cells = settings: cited from earlier work
[8] = test system: FGF-2 release from PC3 cells; settings: oleandrin 0.1 ng/mL; cited from earlier work
human cancer cells = settings: cited from earlier work
[9] = in 50 ml of 9.6% solution of hydroxypropyl-β-cyclodextrin, 70 to 80° C.
Procedure: 200 mg of oleandrin was weighed and placed in a sterile test tube. The oleandrin was dissolved in 3 to 5 mL of purified absolute ethanol. […] The ethanolic solution of oleandrin was slowly added to the beaker with stirring. […] The solution was sterile-filtered through a 0.22 μm filter. The solution was frozen below −40° C. and lyophilized.
500 mg of digitoxin was weighed and placed in a sterile test tube. […] The ethanolic solution of digitoxin was slowly added to the beaker with stirring. […] The solution was sterile-filtered through a 0.22 μm filter. The solution was frozen below −40° C. and lyophilized.
200 mg of proscillaridin-A was weighed and placed in a sterile test tube and was dissolved in 5 to 10 mL of purified absolute ethanol. […] The ethanolic solution of proscillaridin-A was slowly added to the beaker with stirring. […] The solution was sterile filtered through a 0.22 μm filter. The solution was frozen below −40° C. and lyophilized.

CO[C@@H]1C[C@H](O[C@H]2CC[C@@]3(C)[C@H](CC[C@@]45O[C@@]46CC[C@H](C4=CC(=O)OC4)[C@@]6(C)CC[C@H]35)C2)O[C@H](C)[C@@H]1O [adynerin]
anti-cancer activity [1]: significant anti-cancer activity

C[C@H]1O[C@@H](O[C@H]2[C@@H](O)C[C@H](O[C@H]3[C@@H](O)C[C@H](O[C@H]4CC[C@@]5(C)[C@H](CC[C@@H]6[C@@H]5CC[C@]5(C)[C@@H](C7=CC(=O)OC7)CC[C@]65O)C4)O[C@@H]3C)O[C@@H]2C)C[C@H](O)[C@@H]1O [digitoxin]
growth and apoptosis at non-toxic concentrations [2]: inhibit growth and induce apoptosis

C[C@H]1O[C@@H](O[C@H]2[C@@H](O)C[C@H](O[C@H]3[C@@H](O)C[C@H](O[C@H]4CC[C@@]5(C)[C@H](CC[C@@H]6[C@@H]5C[C@@H](O)[C@]5(C)[C@@H](C7=CC(=O)OC7)CC[C@]65O)C4)O[C@@H]3C)O[C@@H]2C)C[C@H](O)[C@@H]1O [digoxin]
selective toxicity against solid or hematological tumor cells from patients [3]: selective toxicity against solid tumor cells
growth and apoptosis at non-toxic concentrations [2]: inhibit growth and induce apoptosis
induction of apoptosis [4]: induce apoptosis

CO[C@H]1C[C@H](O[C@H]2CC[C@@]3(C)[C@H](CC[C@@H]4[C@@H]3CC[C@]3(C)[C@@H](C5=CC(=O)OC5)[C@@H](OC(C)=O)C[C@]43O)C2)O[C@@H](C)[C@@H]1O [oleandrin, 16β-acetoxy-3β-[(2,6 dideoxy-3-0-methyl-α2-L-arabino-hexopyranosyl)oxy]-14-hydroxy-5β, 14β-card-20(22)-enolide]
TNF induced activation of c-Jun NH2-terminal kinase [5]: inhibited
inhibition of FGF-2 release [6]: 49.9%
solubility in organic solvents ([7]; ethanol and chloroform): soluble
stability with respect to heat ([7]; heat): heat stable
stability with respect to light ([7]; light): unstable
solubility in water ([7]; water): almost insoluble
AP-1 activation induced by TNF and other stimuli (AP-1): blocked
NF-κB activation induced by phorbol esters and bacterial lipopolysaccharide (NF-κB): blocked
NF-κB-dependent reporter gene transcription activated by TNF (NF-κB): suppressed
TNF induced activation of NF-κB (NF-κB; concentration and time dependent): blocked
toxicity to murine cancer cells (murine cancer cells): not toxic
anti-cancer activity [1]: significant anti-cancer activity
inhibition of FGF-2 release [8]: 45.7%
ability to kill human cancer cells (human cancer cells): able to kill
amount effectively solubilized [9]: 200 mg
induction of apoptosis [4]: induce apoptosis

C[C@@H]1O[C@@H](O[C@H]2C[C@@H](O)[C@]3(CO)[C@H]4[C@H](O)C[C@]5(C)[C@@H](C6=CC(=O)OC6)CC[C@]5(O)[C@@H]4CC[C@]3(O)C2)[C@H](O)[C@H](O)[C@H]1O [ouabain]
induction of apoptosis [4]: induce apoptosis

C[C@@H]1O[C@@H](O[C@@H]2C=C3CC[C@@H]4[C@H](CC[C@]5(C)[C@@H](c6ccc(=O)oc6)CC[C@]45O)[C@@]3(C)CC2)[C@H](O)[C@H](O)[C@H]1O [proscillaridin-A, Proscillaridin A, reference compound]
selective toxicity against solid or hematological tumor cells from patients [3]: no selective toxicity
amount effectively solubilized [9]: 200 mg

C[C@H]1[C@H](C)CC[C@]2(C(=O)O)CC[C@]3(C)C(=CC[C@@H]4[C@@]5(C)CC[C@H](O)C(C)(C)[C@@H]5CC[C@]43C)[C@H]12 [ursolic acid]
anti-cancer activity [1]: significant anti-cancer activity
